Data as given in the NIST ThermoML archive (doi:10.1016/j.jct.2011.01.014).
± gives the expanded uncertainty stated by the source.

Experiment: xn = mol fraction of the nth substance listed
Conditions: 101 kPa, Liquid; for speed of sound: sound velocity cell; for mass density: Vibrating tube method

In the case of `CC(=O)[O-].[NH3+]CCO` [2-hydroxyethylammonium acetate] + CO, the speed of sound (305.65 K, x1 = 0.0492) is reported as 1161.1 ± 1.9 m/s, the speed of sound (305.65 K, x1 = 0.0951) is reported as 1224.5 ± 1.7 m/s and the speed of sound (305.65 K, x1 = 0.1987) is reported as 1341 ± 1.7 m/s. The speed of sound (305.65 K, x1 = 0.29) was 1429.3 ± 1.8 m/s, the speed of sound (305.65 K, x1 = 0.3786) was 1500.3 ± 1.9 m/s and the speed of sound (305.65 K, x1 = 0.4825) was 1575.7 ± 2 m/s. For the same compound, the speed of sound (305.65 K, x1 = 0.6007) was 1645.1 ± 2.3 m/s, the speed of sound (305.65 K, x1 = 0.6711) was 1681.8 ± 2.4 m/s and the speed of sound (305.65 K, x1 = 0.7797) was 1700.1 ± 2.6 m/s. For the same compound, the speed of sound (305.65 K, x1 = 0.8297) was 1753.7 ± 2.8 m/s, the speed of sound (305.65 K, x1 = 0.9328) was 1750.5 ± 3 m/s and the speed of sound (305.65 K, x1 = 1) was 1773.4 ± 3.2 m/s. For the same compound, the mass density (308.15 K, x1 = 0.0492) was 832.793 ± 1 kg/m3, the mass density (308.15 K, x1 = 0.0951) was 875.068 ± 0.73 kg/m3 and the mass density (308.15 K, x1 = 0.1987) was 943.548 ± 0.62 kg/m3. The mass density (308.15 K, x1 = 0.29) was 988.497 ± 0.53 kg/m3, the mass density (308.15 K, x1 = 0.3786) was 1021.52 ± 0.55 kg/m3 and the mass density (308.15 K, x1 = 0.4825) was 1053.6 ± 0.71 kg/m3. For the same compound, the mass density (308.15 K, x1 = 0.6007) was 1081.57 ± 1 kg/m3, the mass density (308.15 K, x1 = 0.6711) was 1095.97 ± 1.2 kg/m3 and the mass density (308.15 K, x1 = 0.7797) was 1114.95 ± 1.6 kg/m3. It also gave a mass density (308.15 K, x1 = 0.8297) of 1122.74 ± 1.8 kg/m3, a mass density (308.15 K, x1 = 0.9328) of 1136.52 ± 2.2 kg/m3 and a mass density (308.15 K, x1 = 1) of 1143.39 ± 2.5 kg/m3. The speed of sound (308.15 K, x1 = 0.0492) was 1153.3 ± 1.9 m/s, the speed of sound (308.15 K, x1 = 0.0951) was 1217 ± 1.7 m/s and the speed of sound (308.15 K, x1 = 0.1987) was 1334 ± 1.7 m/s. The speed of sound (308.15 K, x1 = 0.29) was 1422.7 ± 1.8 m/s, the speed of sound (308.15 K, x1 = 0.3786) was 1494 ± 1.9 m/s and the speed of sound (308.15 K, x1 = 0.4825) was 1569.6 ± 2 m/s. For the same compound, the speed of sound (308.15 K, x1 = 0.6007) was 1639.2 ± 2.3 m/s, the speed of sound (308.15 K, x1 = 0.6711) was 1675.9 ± 2.4 m/s and the speed of sound (308.15 K, x1 = 0.7797) was 1694.5 ± 2.6 m/s. For the same compound, the speed of sound (308.15 K, x1 = 0.8297) was 1748 ± 2.8 m/s, the speed of sound (308.15 K, x1 = 0.9328) was 1744.9 ± 3 m/s and the speed of sound (308.15 K, x1 = 1) was 1767.9 ± 3.2 m/s. For the same compound, the mass density (310.65 K, x1 = 0.0492) was 830.575 ± 1 kg/m3, the mass density (310.65 K, x1 = 0.0951) was 872.975 ± 0.73 kg/m3 and the mass density (310.65 K, x1 = 0.1987) was 941.654 ± 0.62 kg/m3. For the same compound, the mass density (310.65 K, x1 = 0.29) was 986.73 ± 0.53 kg/m3, the mass density (310.65 K, x1 = 0.3786) was 1019.84 ± 0.55 kg/m3 and the mass density (310.65 K, x1 = 0.4825) was 1052.01 ± 0.71 kg/m3. For the same compound, the mass density (310.65 K, x1 = 0.6007) was 1080.07 ± 0.99 kg/m3, the mass density (310.65 K, x1 = 0.6711) was 1094.53 ± 1.2 kg/m3 and the mass density (310.65 K, x1 = 0.7797) was 1113.51 ± 1.6 kg/m3. It also gave a mass density (310.65 K, x1 = 0.8297) of 1121.32 ± 1.8 kg/m3, a mass density (310.65 K, x1 = 0.9328) of 1135.08 ± 2.2 kg/m3 and a mass density (310.65 K, x1 = 1) of 1141.96 ± 2.5 kg/m3. It also gave a speed of sound (310.65 K, x1 = 0.0492) of 1145.6 ± 1.9 m/s, a speed of sound (310.65 K, x1 = 0.0951) of 1209.6 ± 1.7 m/s and a speed of sound (310.65 K, x1 = 0.1987) of 1327 ± 1.7 m/s. The speed of sound (310.65 K, x1 = 0.29) was 1416 ± 1.8 m/s, the speed of sound (310.65 K, x1 = 0.3786) was 1487.6 ± 1.9 m/s and the speed of sound (310.65 K, x1 = 0.4825) was 1563.5 ± 2 m/s. For the same compound, the speed of sound (310.65 K, x1 = 0.6007) was 1633.3 ± 2.3 m/s, the speed of sound (310.65 K, x1 = 0.6711) was 1670.1 ± 2.4 m/s and the speed of sound (310.65 K, x1 = 0.7797) was 1689 ± 2.6 m/s. It also gave a speed of sound (310.65 K, x1 = 0.8297) of 1742.3 ± 2.8 m/s, a speed of sound (310.65 K, x1 = 0.9328) of 1739.3 ± 3 m/s and a speed of sound (310.65 K, x1 = 1) of 1762.5 ± 3.2 m/s. It also gave a mass density (313.15 K, x1 = 0.0492) of 828.348 ± 1 kg/m3, a mass density (313.15 K, x1 = 0.0951) of 870.876 ± 0.74 kg/m3 and a mass density (313.15 K, x1 = 0.1987) of 939.757 ± 0.62 kg/m3. The mass density (313.15 K, x1 = 0.29) was 984.961 ± 0.53 kg/m3, the mass density (313.15 K, x1 = 0.3786) was 1018.17 ± 0.55 kg/m3 and the mass density (313.15 K, x1 = 0.4825) was 1050.42 ± 0.71 kg/m3. It also gave a mass density (313.15 K, x1 = 0.6007) of 1078.57 ± 0.99 kg/m3, a mass density (313.15 K, x1 = 0.6711) of 1093.07 ± 1.2 kg/m3 and a mass density (313.15 K, x1 = 0.7797) of 1112.05 ± 1.6 kg/m3. It also gave a mass density (313.15 K, x1 = 0.8297) of 1119.91 ± 1.8 kg/m3, a mass density (313.15 K, x1 = 0.9328) of 1133.64 ± 2.2 kg/m3 and a mass density (313.15 K, x1 = 1) of 1140.55 ± 2.5 kg/m3. For the same compound, the speed of sound (313.15 K, x1 = 0.0492) was 1137.8 ± 1.9 m/s, the speed of sound (313.15 K, x1 = 0.0951) was 1202.1 ± 1.7 m/s and the speed of sound (313.15 K, x1 = 0.1987) was 1320 ± 1.7 m/s. For the same compound, the speed of sound (313.15 K, x1 = 0.29) was 1409.3 ± 1.8 m/s, the speed of sound (313.15 K, x1 = 0.3786) was 1481.3 ± 1.9 m/s and the speed of sound (313.15 K, x1 = 0.4825) was 1557.5 ± 2 m/s. The speed of sound (313.15 K, x1 = 0.6007) was 1627.4 ± 2.3 m/s, the speed of sound (313.15 K, x1 = 0.6711) was 1664.3 ± 2.4 m/s and the speed of sound (313.15 K, x1 = 0.7797) was 1683.4 ± 2.6 m/s. The speed of sound (313.15 K, x1 = 0.8297) was 1736.7 ± 2.8 m/s, the speed of sound (313.15 K, x1 = 0.9328) was 1733.8 ± 3 m/s and the speed of sound (313.15 K, x1 = 1) was 1757.2 ± 3.2 m/s. For the same compound, the mass density (315.65 K, x1 = 0.0492) was 826.113 ± 1.1 kg/m3, the mass density (315.65 K, x1 = 0.0951) was 868.768 ± 0.74 kg/m3 and the mass density (315.65 K, x1 = 0.1987) was 937.855 ± 0.62 kg/m3. It also gave a mass density (315.65 K, x1 = 0.29) of 983.188 ± 0.53 kg/m3, a mass density (315.65 K, x1 = 0.3786) of 1016.49 ± 0.55 kg/m3 and a mass density (315.65 K, x1 = 0.4825) of 1048.81 ± 0.71 kg/m3.
